What was measured:
Type in all cases: biochemical
[1] = target: PI3Kδ (p110δ/p85α) (Homo sapiens (Human), UniProt O00329); experiment: PI3Kδ scintillation proximity assay; details: 20 μM ATP; read-out: PI3Kδ SPA IC50
Text: [γ-^33P]ATP (10 mCi/mL) was purchased from Perkin-Elmer (Waltham, MA). Lipid kinase substrate, D-myo-Phosphatidylinositol 4,5-bisphosphate (PtdIns(4,5)P2)D (+)-sn-1,2-di-O-octanoylglyceryl, 3-O-phospho linked (PIP2), CAS 204858-53-7, was purchased from Echelon Biosciences (Salt Lake City, UT). PI3Kδ (p110δ/p85α) was purchased from Millipore (Bedford, MA). ATP, MgCl2, DTT, EDTA, MOPS and CHAPS were purchased from Sigma-Aldrich (St. Louis, MO). Wheat Germ Agglutinin (WGA) YSi SPA Scintillation Beads was purchased from GE healthcare life sciences (Piscataway, NJ).
The kinase reaction was conducted in polystyrene 384-well matrix white plate from Thermo Fisher Scientific in a final volume of 25 μL. Inhibitors were first diluted serially in DMSO and added to the plate wells before the addition of other reaction components. The final concentration of DMSO in the assay was 0.5%. The PI3K assays were carried out at room temperature in 20 mM MOPS, pH 6.7, 10 mM MgCl2, 5 mM DTT and CHAPS 0.03%. Reactions were initiated by the addition of ATP, the final reaction mixture consisted of 20 μM PIP2, 20 μM ATP, 0.2 μCi [γ-^33P]ATP, 4 nM PI3Kδ. Reactions were incubated for 210 min and terminated by the addition of 40 μL SPA beads suspended in quench buffer: 150 mM potassium phosphate pH 8.0, 20% glycerol. 25 mM EDTA, 400 μM ATP. The final concentration of SPA beads was 1.0 mg/mL. After the plate sealing, plates were shaken overnight at room temperature and centrifuged at 1800 rpm for 10 minutes, the radioactivity of the product was determined by scintillation counting on Topcount (Perkin-Elmer). IC50 determination was performed by fitting the curve of percent control activity versus the log of the inhibitor concentration using the GraphPad Prism 3.0 software. IC50 data for the Examples is presented in Table B as determined by Assay A.

[2] = target: JAK2 (Homo sapiens (Human), UniProt O60674); experiment: JAK2/JAK1 selectivity, Assay A at 1 mM ATP; details: IC50 ratio
[3] = target: JAK1 (Homo sapiens (Human), UniProt P23458); experiment: JAK1 IC50, Assay A of U.S. Ser. No. 14/680,659 at 1 mM ATP
JAK1, sequence (P23458 837-1142): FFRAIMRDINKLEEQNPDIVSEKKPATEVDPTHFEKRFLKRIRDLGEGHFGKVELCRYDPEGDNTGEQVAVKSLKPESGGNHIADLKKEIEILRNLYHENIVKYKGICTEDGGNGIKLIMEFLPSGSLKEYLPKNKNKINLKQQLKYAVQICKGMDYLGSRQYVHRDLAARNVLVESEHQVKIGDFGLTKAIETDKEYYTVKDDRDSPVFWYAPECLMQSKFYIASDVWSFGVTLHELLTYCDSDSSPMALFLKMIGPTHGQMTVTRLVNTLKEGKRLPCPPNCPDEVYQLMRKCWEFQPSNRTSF

PI3Kδ (p110δ/p85α), sequence (O00329 whole entry): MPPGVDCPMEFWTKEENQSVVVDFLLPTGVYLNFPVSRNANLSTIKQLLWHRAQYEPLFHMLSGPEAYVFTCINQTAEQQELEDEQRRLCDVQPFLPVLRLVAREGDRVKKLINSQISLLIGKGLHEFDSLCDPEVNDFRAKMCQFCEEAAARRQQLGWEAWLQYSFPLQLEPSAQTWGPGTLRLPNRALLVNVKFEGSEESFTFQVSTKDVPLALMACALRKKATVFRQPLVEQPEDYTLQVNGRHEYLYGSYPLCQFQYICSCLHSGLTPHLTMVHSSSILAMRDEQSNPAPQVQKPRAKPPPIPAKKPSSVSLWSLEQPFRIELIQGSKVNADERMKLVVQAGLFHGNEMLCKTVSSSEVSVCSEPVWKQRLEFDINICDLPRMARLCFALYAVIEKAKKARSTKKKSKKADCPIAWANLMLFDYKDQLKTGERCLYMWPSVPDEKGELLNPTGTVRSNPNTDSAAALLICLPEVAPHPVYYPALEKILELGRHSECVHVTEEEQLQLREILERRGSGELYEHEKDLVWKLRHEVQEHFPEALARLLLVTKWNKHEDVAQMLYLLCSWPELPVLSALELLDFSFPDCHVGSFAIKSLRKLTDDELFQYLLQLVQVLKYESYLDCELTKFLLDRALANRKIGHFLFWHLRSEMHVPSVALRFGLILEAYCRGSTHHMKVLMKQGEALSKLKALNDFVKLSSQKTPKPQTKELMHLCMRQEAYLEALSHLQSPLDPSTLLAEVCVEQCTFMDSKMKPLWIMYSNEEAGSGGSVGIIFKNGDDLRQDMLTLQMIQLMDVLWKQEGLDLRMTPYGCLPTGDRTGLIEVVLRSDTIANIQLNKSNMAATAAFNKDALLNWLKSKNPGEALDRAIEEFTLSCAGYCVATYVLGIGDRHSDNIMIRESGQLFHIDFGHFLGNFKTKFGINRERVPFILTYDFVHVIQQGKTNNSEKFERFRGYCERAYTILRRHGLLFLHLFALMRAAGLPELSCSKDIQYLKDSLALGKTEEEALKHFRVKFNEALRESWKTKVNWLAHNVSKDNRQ
PI3Kδ (p110δ/p85α), sequence (P27986 whole entry partner): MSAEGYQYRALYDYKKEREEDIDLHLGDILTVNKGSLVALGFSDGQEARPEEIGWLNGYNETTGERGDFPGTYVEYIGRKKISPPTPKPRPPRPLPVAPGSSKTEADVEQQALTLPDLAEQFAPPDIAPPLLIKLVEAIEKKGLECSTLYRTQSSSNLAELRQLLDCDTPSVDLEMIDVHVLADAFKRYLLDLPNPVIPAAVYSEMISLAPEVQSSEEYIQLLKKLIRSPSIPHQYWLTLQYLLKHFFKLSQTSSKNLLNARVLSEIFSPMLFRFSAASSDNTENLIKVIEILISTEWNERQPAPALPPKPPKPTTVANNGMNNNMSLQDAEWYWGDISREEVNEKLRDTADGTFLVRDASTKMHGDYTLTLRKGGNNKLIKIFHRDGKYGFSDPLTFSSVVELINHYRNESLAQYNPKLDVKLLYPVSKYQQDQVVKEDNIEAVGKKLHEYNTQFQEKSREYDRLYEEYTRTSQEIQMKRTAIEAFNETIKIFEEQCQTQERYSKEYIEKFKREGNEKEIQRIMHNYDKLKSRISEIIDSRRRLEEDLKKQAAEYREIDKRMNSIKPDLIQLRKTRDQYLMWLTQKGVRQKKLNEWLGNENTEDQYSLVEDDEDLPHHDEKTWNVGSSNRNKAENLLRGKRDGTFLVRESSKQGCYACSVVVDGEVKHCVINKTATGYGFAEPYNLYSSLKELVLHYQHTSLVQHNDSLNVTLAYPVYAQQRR
JAK2, sequence (O60674 828-1132): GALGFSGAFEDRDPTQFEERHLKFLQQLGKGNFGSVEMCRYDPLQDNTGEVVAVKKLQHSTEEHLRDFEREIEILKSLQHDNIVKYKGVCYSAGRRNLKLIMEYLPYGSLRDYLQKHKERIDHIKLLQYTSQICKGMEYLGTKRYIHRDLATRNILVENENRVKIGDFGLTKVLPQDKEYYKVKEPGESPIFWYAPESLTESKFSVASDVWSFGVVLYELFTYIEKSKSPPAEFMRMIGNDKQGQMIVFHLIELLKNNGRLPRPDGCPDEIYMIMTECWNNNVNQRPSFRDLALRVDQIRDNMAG

Row | SMILES | IC50 [1] [nM] | JAK2/ JAK1 [2] | IC50 [3] [nM]
1 | CCOc1c(C(C)n2nc(C)c3c(N)ncnc32)cc(Cl)c(F)c1C1CNC(=O)C1 (single isomer, unassigned) [Example 1A, 4-{3-[1-(4-amino-3-methyl-1H-pyrazolo[3,4-d]pyrimidin-1-yl)ethyl]-5-chloro-2-ethoxy-6-fluorophenyl}pyrrolidin-2-one] | 50 to 200 | – | –
2 | CCOc1c(C(C)n2nc(C)c3c(N)ncnc32)cc(Cl)c(F)c1C1CNC(=O)C1 (single isomer, unassigned) [Example 1D, 4-{3-[1-(4-amino-3-methyl-1H-pyrazolo[3,4-d]pyrimidin-1-yl)ethyl]-5-chloro-2-ethoxy-6-fluorophenyl}pyrrolidin-2-one] | 50 to 200 | – | –
3 | CCOc1c(C(C)n2nc(C)c3c(N)ncnc32)cc(Cl)c(F)c1C1CNC(=O)O1 (single isomer, unassigned) [Example 2A, 5-{3-[1-(4-amino-3-methyl-1H-pyrazolo[3,4-d]pyrimidin-1-yl)ethyl]-5-chloro-2-ethoxy-6-fluorophenyl}-1,3-oxazolidin-2-one] | 50 to 200 | – | –
4 | CCOc1c(C(C)n2nc(C)c3c(N)ncnc32)cc(Cl)c(F)c1C1CNC(=O)O1 (single isomer, unassigned) [Example 2B, 5-{3-[1-(4-amino-3-methyl-1H-pyrazolo[3,4-d]pyrimidin-1-yl)ethyl]-5-chloro-2-ethoxy-6-fluorophenyl}-1,3-oxazolidin-2-one] | 50 to 200 | – | –
5 | CCOc1c(C(C)n2nc(C)c3c(N)ncnc32)cc(Cl)c(F)c1C1CNC(=O)O1 (single isomer, unassigned) [Example 2D, 5-{3-[1-(4-amino-3-methyl-1H-pyrazolo[3,4-d]pyrimidin-1-yl)ethyl]-5-chloro-2-ethoxy-6-fluorophenyl}-1,3-oxazolidin-2-one] | > 500 | – | –
6 | C[C@@H](O)c1nc2cnc3ccsc3c2n1[C@H]1CC[C@H](CC#N)OC1 [Example 1, ((2R,5S)-5-{2-[(1R)-1-hydroxyethyl]-1H-imidazo[4,5-d]thieno[3,2-b]pyridin-1-yl}tetrahydro-2H-pyran-2-yl)acetonitrile] | – | >10 | < 100
7 | N#CCC(C1CCN(c2cccc(Cl)n2)C1)n1cc(-c2ncnc3[nH]ccc23)cn1 (stereo not shown) [Example 3, 3-[1-(6-chloropyridin-2-yl)pyrrolidin-3-yl]-3-[4-(7H-pyrrolo[2,3-d]pyrimidin-4-yl)-1H-pyrazol-1-yl]propanenitrile] | – | >10 | < 10
8 | N#CCC(C1CCN(c2nc3cccnc3o2)C1)n1cc(-c2ncnc3[nH]ccc23)cn1 (stereo not shown) [Example 4, 3-(1-[1,3]oxazolo[5,4-b]pyridin-2-ylpyrrolidin-3-yl)-3-[4-(7H-pyrrolo[2,3-d]pyrimidin-4-yl)-1H-pyrazol-1-yl]propanenitrile] | – | >10 | < 10
9 | N#CCC(CN1CCN(C(=O)c2ccc(C#N)cc2F)CC1)n1cc(-c2ncnc3[nH]ccc23)cn1 (stereo not shown) [Example 5, 4-[(4-{3-cyano-2-[4-(7H-pyrrolo[2,3-d]pyrimidin-4-yl)-1H-pyrazol-1-yl]propyl}piperazin-1-yl)carbonyl]-3-fluorobenzonitrile] | – | >10 | < 10
10 | N#CCC(CN1CCN(C(=O)c2ccc(C#N)cc2F)CC1)n1ccc(-c2ncnc3[nH]ccc23)c1 (stereo not shown) [Example 6, 4-[(4-{3-cyano-2-[3-(7H-pyrrolo[2,3-d]pyrimidin-4-yl)-1H-pyrrol-1-yl]propyl}piperazin-1-yl)carbonyl]-3-fluorobenzonitrile] | – | >10 | < 10
11 | N#CCC1(n2cc(-c3ncnc4[nH]ccc34)cn2)CN(C2CCN(C(=O)c3ccnc(C(F)(F)F)c3F)CC2)C1 [Example 7] | – | >10 | < 10
12 | N#CCC1(n2cc(-c3ncnc4[nH]ccc34)cn2)CN(C2CCN(C(=O)Nc3ccc(F)cc3C(F)(F)F)CC2)C1 [Example 8] | – | >10 | < 10
13 | N#CCC1(n2cc(-c3ncnc4[nH]ccc34)cn2)CN(C2CCN(C(=O)c3ccnc(C(F)(F)F)n3)CC2)C1 [Example 9, [3-[4-(7H-pyrrolo[2,3-d]pyrimidin-4-yl)-1H-pyrazol-1-yl]-1-(1-{[2-(trifluoromethyl)pyrimidin-4-yl]carbonyl}piperidin-4-yl)azetidin-3-yl]acetonitrile] | – | >10 | < 10
14 | N#CC[C@]1(n2cc(-c3ncnc4[nH]ccc34)cn2)C[C@H](N2CCN(C(=O)c3ccnc(C(F)(F)F)n3)CC2)C1 [Example 10] | – | >10 | < 10
15 | N#CC[C@]1(n2cc(-c3ncnc4[nH]ccc34)cn2)C[C@H](N2CCC(Oc3cc(CN4CC(O)C4)cc(C(F)(F)F)n3)CC2)C1 [Example 11] | – | >10 | < 10
16 | N#CC[C@]1(n2cc(-c3ncnc4[nH]ccc34)cn2)C[C@H](N2CCC(Oc3cc(CN4CCC[C@H]4CO)cc(C(F)(F)F)n3)CC2)C1 [Example 12] | – | >10 | < 10
17 | N#CC[C@]1(n2cc(-c3ncnc4[nH]ccc34)cn2)C[C@H](N2CCC(Oc3cc(CN4CCC[C@@H]4CO)cc(C(F)(F)F)n3)CC2)C1 [Example 13] | – | >10 | < 10
18 | C[C@H](NC(=O)c1cc(F)c(N2CC(CC#N)(n3cc(-c4ncnc5[nH]ccc45)cn3)C2)cc1F)C(F)(F)F [Example 16, 4-{3-(cyanomethyl)-3-[4-(7H-pyrrolo[2,3-d]pyrimidin-4-yl)-1H-pyrazol-1-yl]azetidin-1-yl}-2,5-difluoro-N-[(1S)-2,2,2-trifluoro-1-methylethyl]benzamide] | – | >10 | < 10
19 | N#CCC1(n2cc(-c3ncnc4[nH]ccc34)cn2)CN([C@H]2CC[C@@H](Oc3cc(CCO)nc(C(F)(F)F)n3)CC2)C1 [Example 18, {1-(cis-4-{[6-(2-hydroxyethyl)-2-(trifluoromethyl)pyrimidin-4-yl]oxy}cyclohexyl)-3-[4-(7H-pyrrolo[2,3-d]pyrimidin-4-yl)-1H-pyrazol-1-yl]azetidin-3-yl}acetonitrile] | – | >10 | < 10
20 | CCNCc1cc(O[C@H]2CC[C@@H](N3CC(CC#N)(n4cc(-c5ncnc6[nH]ccc56)cn4)C3)CC2)nc(C(F)(F)F)c1 [Example 19, {1-(cis-4-{[4-[(ethylamino)methyl]-6-(trifluoromethyl)pyridin-2-yl]oxy}cyclohexyl)-3-[4-(7H-pyrrolo[2,3-d]pyrimidin-4-yl)-1H-pyrazol-1-yl]azetidin-3-yl}acetonitrile] | – | >10 | < 10
21 | CC(C)(O)c1cc(O[C@H]2CC[C@@H](N3CC(CC#N)(n4cc(-c5ncnc6[nH]ccc56)cn4)C3)CC2)nc(C(F)(F)F)c1 [Example 20, {1-(cis-4-{[4-(1-hydroxy-1-methylethyl)-6-(trifluoromethyl)pyridin-2-yl]oxy}cyclohexyl)-3-[4-(7H-pyrrolo[2,3-d]pyrimidin-4-yl)-1H-pyrazol-1-yl]azetidin-3-yl}acetonitrile] | – | >10 | < 10
22 | N#CCC1(n2cc(-c3ncnc4[nH]ccc34)cn2)CN([C@H]2CC[C@@H](Oc3cc(CN4CC[C@@H](O)C4)cc(C(F)(F)F)n3)CC2)C1 [Example 21, {1-(cis-4-{[4-{[(3R)-3-hydroxypyrrolidin-1-yl]methyl}-6-(trifluoromethyl)pyridin-2-yl]oxy}cyclohexyl)-3-[4-(7H-pyrrolo[2,3-d]pyrimidin-4-yl)-1H-pyrazol-1-yl]azetidin-3-yl}acetonitrile] | – | >10 | < 10
23 | N#CCC1(n2cc(-c3ncnc4[nH]ccc34)cn2)CN([C@H]2CC[C@@H](Oc3cc(CN4CC[C@H](O)C4)cc(C(F)(F)F)n3)CC2)C1 [Example 22, {1-(cis-4-{[4-{[(3S)-3-hydroxypyrrolidin-1-yl]methyl}-6-(trifluoromethyl)pyridin-2-yl]oxy}cyclohexyl)-3-[4-(7H-pyrrolo[2,3-d]pyrimidin-4-yl)-1H-pyrazol-1-yl]azetidin-3-yl}acetonitrile] | – | >10 | < 10
24 | C[C@@H](CO)NCc1cc(OC2CCN([C@H]3C[C@](CC#N)(n4cc(-c5ncnc6[nH]ccc56)cn4)C3)CC2)nc(C(F)(F)F)c1 [Example 23] | – | >10 | < 10
25 | C[C@@H](O)CNCc1cc(OC2CCN([C@H]3C[C@](CC#N)(n4cc(-c5ncnc6[nH]ccc56)cn4)C3)CC2)nc(C(F)(F)F)c1 [Example 24] | – | >10 | < 10
26 | C[C@H](O)CNCc1cc(OC2CCN([C@H]3C[C@](CC#N)(n4cc(-c5ncnc6[nH]ccc56)cn4)C3)CC2)nc(C(F)(F)F)c1 [Example 25] | – | >10 | < 10
27 | N#CC[C@]1(n2cc(-c3ncnc4[nH]ccc34)cn2)C[C@H](N2CCC(Oc3cc(CCO)cc(C(F)(F)F)n3)CC2)C1 [Example 26] | – | >10 | < 10
